Source: US20220315532A1, “METHODS FOR PREPARING CDK4/6 INHIBITOR AND SALT AND INTERMEDIATE THEREOF” (Gan & Lee Pharmaceuticals Co., Ltd., priority 2019, published 2022)

Tests used:
Assay type in all cases: physicochemical
[1] = solubility in simulated intestinal fluid (FaSSIF, FeSSIF); conditions: compared with the free base
solubility in water = conditions: compared with the free base
[2] = hygroscopicity and crystalline form after moisture absorption
[3] = physical and chemical stability under high humidity and illumination; conditions: compared with free base

With `CC1=Nc2c(F)cc(-c3nc(Nc4ccc(C5CCN(C)CC5)cn4)ncc3F)cc2C12CCCC2.O=C(O)/C=C/C(=O)O` [fumarate, fumarate of 5-fluoro-4-(7′-fluoro-2′-methylspiro[cyclopentane-1,3′-indol]-5′-yl)-N-(5-(1-methylpiperidin-4-yl)pyridin-2-yl)pyrimidin-2-amine] the “solubility in fasted state simulated intestinal fluid (FaSSIF)” value [1] was “higher solubility”, the solubility in water (solubility in water) was “higher solubility” and the crystalline form stability ([2]; after moisture absorption) was “stable in crystalline form”. The hygroscopicity ([2]; compared with the free base) was “low hygroscopicity comparable to the free base” and the “physical and chemical stability” value [3] was “better physical and chemical stability”.
